Measurements: patent US20080234229A1, “Novel Therapeutic Agents for the Treatment of Cancer, Metabolic Diseases and Skin Disorders” (AUSPEX PHARMACEUTICALS, INC., priority 2005, published 2008)

Legend:
A375 cells = assay: A375 Tumor Cell Proliferation Assay (Alamar Blue); assay type: cell-based, human; conditions: for TGI (Total Growth Inhibition) / IC50: A375 cells, 72 to 168 hours, reference data; for IC50: A-375, read-out: IC50 (50% Inhibitory Concentration); for growth inhibitory effect compared to Targretin: FIG. 1
Procedure: A375 cells (5,000 per well in 90% RPMI-1640 plus 10% Fetal Bovine Serum [FBS]) were pre-incubated in a black clear bottom 96-well plate in an atmosphere of 5% CO2 at 37° C. for 24 hours. Stock solutions of compounds in DMSO were diluted using a buffer and dilutions were added to each well. […] The final assay pH was 7.4. The cells were incubated in RPMI-1640 with each compound for an additional 72 to 168 hours. Alamar Blue was added and the plate was incubated for an additional 12 hours. Fluorescence intensity was measured using a Gemini plate reader with excitation at 530 nm and emission at 590 nm. A decrease of 50 percent or more (≧50%) in fluorescence intensity relative to vehicle treated controls is an indication of significant anti-cancer activity.
TGI (Total Growth Inhibition): Test compound concentration where the increase in number or mass of cells after 72 to 168 hours is reduced to equal that at time t=0.

SKMES cells = assay: SKMES Tumor Cell Proliferation Assay (Alamar Blue); assay type: cell-based; conditions: human SKMES carcinoma cells; for growth inhibitory effect compared to Targretin: FIG. 2
Procedure: SKMES cells (8×10^3/well in 90% RPMI-1640 medium plus 2 mM glutamine, 10 mM HEPES and 10% Fetal Bovine Serum [FBS]), are pre-incubated in 96-well plates in an atmosphere of 5% CO2 at 37° C. for 24 hours. Test compounds and/or vehicle is then added to each well with a final concentration of 0.5% DMSO, pH 7.4 in RPMI-1640 for an additional 72 hours. After a further 150 minutes incubation in the presence of Alamar Blue, fluorescence intensity is measured using a Gemini plate reader with excitation at 530 nm and emission at […].

SW-480 cells = assay: SW-480 Tumor Cell Proliferation Assay (Alamar Blue); assay type: cell-based; conditions: human SW480 carcinoma cells; for growth inhibitory effect compared to Targretin: FIG. 3; for growth inhibitory effect in the presence of Irinotican: varying concentrations, combination with Irinotican, FIG. 6 and 7
Procedure: SW-480 cells (4×10^3/well in 90% EMEM medium plus 2 mM glutamine, 1 mM pyruvate, 0.1 mM non-essential amino acids and 10% Fetal Bovine Serum [FBS]), are pre-incubated in 96-well plates in an atmosphere of 5% CO2 at 37° C. for 24 hours. Test compounds and/or vehicle is then added to each well with a final concentration of 0.5% DMSO, pH 7.4 in EMEM for an additional 72 hours. After a further 6-hour incubation in the presence of Alamar Blue, fluorescence intensity is measured using a Gemini plate reader with excitation at 530 nm and emission at 590 nm.

Row | SMILES | TGI (Total Growth Inhibition) (A375 cells) | IC50 (A375 cells; Homo sapiens) | growth inhibitory effect compared to Targretin (SKMES cells) | growth inhibitory effect compared to Targretin (A375 cells; human A375 carcinoma cells) | growth inhibitory effect compared to Targretin (SW-480 cells) | growth inhibitory effect in the presence of Irinotican (SW-480 cells) | CC50 (A375 cells; Homo sapiens, A-375, read-out: LC50 (50% Lethal Concentration)) | growth inhibitory effect in the presence of Taxol (SKMES cells; varying concentrations, combination with Taxol, FIG. 4) | growth inhibitory effect in the presence of Taxol (A375 cells; human A375 carcinoma cells, varying concentrations, combination with Taxol, FIG. 5)
1 | CO[C@@]12[C@H](COC(N)=O)C3=C(C(=O)C(C)=C(N)C3=O)N1C[C@@H]1N[C@@H]12 [Mitomycin] | 8 µM | 4.2 µM |  |  |  |  |  |  | 
2 | C=C(c1ccc(B2OC(C)(C)C(C)(C)O2)cc1)c1cc2c(cc1C)C(C)(C)CCC2(C)C [Example 4, 4,4,5,5-Tetramethyl-2-{4-[1-(3,5,5,8,8-pentamethyl-5,6,7,8-tetrahydro-naphthalen-2-yl)-vinyl]-phenyl}-[1,3,2]dioxaborolane] |  |  | enhanced activity | enhanced activity | enhanced activity | synergism |  |  | 
3 | COc1cccc2c1C(=O)c1c(O)c3c(c(O)c1C2=O)C[C@@](O)(C(=O)CO)C[C@@H]3O[C@H]1C[C@H](N)[C@H](O)[C@H](C)O1 [Doxorubicin] | 0.3 µM | 0.19 µM |  |  |  |  | 8 µM |  | 
4 | C=C(c1ccc(B(O)O)cc1)c1cc2c(cc1C)C(C)(C)CCC2(C)C [Example 5, 4-[1-(3,5,5,8,8-Pentamethyl-5,6,7,8-tetrahydro-naphthalen-2-yl)-vinyl]-phenylboronic acid] |  |  | enhanced activity | enhanced activity | enhanced activity | synergism |  | synergism | synergism
